Measurements reported in the supplement of paper PMC10307832.

What was measured:
Assay in all cases: relative viability (nuclei count vs DMSO), 5 days (fraction); higher = more cells survive
CUDC-101 + Palbociclib = compound: C#Cc1cccc(Nc2ncnc3cc(OC)c(OCCCCCCC(=O)NO)cc23)c1 [CUDC-101] + CC(=O)c1c(C)c2cnc(Nc3ccc(N4CCNCC4)cn3)nc2n(C2CCCC2)c1=O [Palbociclib] (partner 0.5 µM)
Outline: (§1)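 Relative viability equals treated-well nuclei counts divided by vehicle-well nuclei counts. Counts came from 4× images of lung cancer cell lines grown in 1536-well plates for 5 days after pin-tool dosing on the day after seeding. Dosing used one drug alone or a fixed anchor-drug dose plus five library-drug doses (not always all listed) in √10 steps, and values are medians of duplicate plates.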

Vandetanib + Luminespib = compound: COc1cc2/c(=N/c3ccc(Br)cc3F)nc[nH]c2cc1OCC1CCN(C)CC1 [Vandetanib] + CCNC(=O)c1noc(-c2cc(C(C)C)c(O)cc2O)c1-c1ccc(CN2CCOCC2)cc1 [Luminespib] (partner 0.01 µM)
Outline: as §1

[1] = compound: C1=CC=C2C(=C1)N=C(S2)C(C#N)C3=NC(=NC=C3)NCCC4=CN=CC=C4 + CS(=O)(=O)CCNCc1ccc(-c2ccc3ncnc(Nc4ccc(OCc5cccc(F)c5)c(Cl)c4)c3c2)o1 [Lapatinib] (partner 2 µM)
Outline: as §1

[2] = compound: C1=CC=C2C(=C1)N=C(S2)C(C#N)C3=NC(=NC=C3)NCCC4=CN=CC=C4 + Cc1nc(NC(=O)N2CCC[C@H]2C(N)=O)sc1-c1ccnc(C(C)(C)C(F)(F)F)c1 [Alpelisib] (partner 2 µM)
Outline: as §1

| Cell Line | relative viability (CUDC-101 + Palbociclib; first compound 0.01 µM) | relative viability (CUDC-101 + Palbociclib; first compound 0.03162 µM) | relative viability (CUDC-101 + Palbociclib; first compound 0.1 µM) | relative viability (CUDC-101 + Palbociclib; first compound 0.3162 µM) | relative viability (CUDC-101 + Palbociclib; first compound 1 µM) | relative viability (Vandetanib + Luminespib; first compound 0.02 µM) | relative viability (Vandetanib + Luminespib; first compound 0.06325 µM) | relative viability (Vandetanib + Luminespib; first compound 0.2 µM) | relative viability (Vandetanib + Luminespib; first compound 0.6325 µM) | relative viability (Vandetanib + Luminespib; first compound 2 µM) | relative viability ([1]; first compound 0.005 µM) | relative viability ([1]; first compound 0.01581 µM) | relative viability ([1]; first compound 0.05 µM) | relative viability ([1]; first compound 0.1581 µM) | relative viability ([1]; first compound 0.5 µM) | relative viability ([2]; first compound 0.005 µM) | relative viability ([2]; first compound 0.01581 µM) | relative viability ([2]; first compound 0.05 µM) | relative viability ([2]; first compound 0.1581 µM) | relative viability ([2]; first compound 0.5 µM) |
| --- | --- | --- | --- | --- | --- | --- | --- | --- | --- | --- | --- | --- | --- | --- | --- | --- | --- | --- | --- | --- |
| HCC-827 | 0.35 | 0.283 | 0.155 | 0.169 | 0.142 | 0.897 | 0.589 | 0.57 | 0.183 | 0.147 | 0.242 | 0.183 | 0.259 | 0.188 | 0.208 | 0.962 | 1.01 | 0.943 | 1.15 | 1.02 |
| NCI-H2170 | 0.419 | 0.402 | 0.385 | 0.37 | 0.361 | 0.715 | 0.606 | 0.689 | 0.616 | 0.823 | – | 0.258 | 0.249 | 0.285 | 0.259 | – | 0.801 | 0.845 | 0.838 | 0.723 |
| NCI-H1395 | 0.599 | 0.632 | 0.595 | 0.725 | 0.578 | 0.715 | 0.539 | 0.729 | 0.6 | 0.879 | 0.953 | – | 1.17 | 1.08 | 1.08 | 1.14 | – | 0.939 | 1.04 | 1.21 |
| NCI-H2009 | 0.219 | 0.191 | 0.263 | 0.258 | 0.276 | 1.04 | 0.998 | 0.17 | 1.07 | 1.03 | 0.899 | 0.892 | 0.977 | 1.11 | 1.02 | 1.13 | 1.22 | 1.18 | 1.16 | 1.12 |
| NCI-H1437 | 0.287 | 0.327 | 0.302 | 0.342 | 0.302 | 1.12 | 1.09 | 0.255 | 1.21 | 1.06 | 0.762 | 0.902 | 0.987 | 0.9 | 0.704 | 0.797 | 1.11 | 0.962 | 1.09 | 0.695 |
| NCI-H2087 | 0.284 | 0.21 | 0.238 | 0.264 | 0.168 | 0.183 | 0.197 | 0.132 | 0.179 | 0.255 | 1.05 | 0.898 | 1.03 | 1.14 | 0.966 | 1.06 | 1.14 | 0.979 | 1.14 | 1.05 |
| PC-14 | 0.629 | 0.425 | 0.338 | 0.0958 | 0.0539 | 0.234 | 0.152 | 0.184 | 0.13 | 0.131 | 0.305 | 0.331 | 0.303 | 0.454 | 0.296 | 0.708 | 1.08 | 1 | 1.17 | 0.742 |
| H3255 | 0.335 | 0.351 | 0.324 | 0.292 | 0.238 | 0.982 | 0.795 | 0.829 | 0.728 | 0.501 | 0.225 | 0.227 | 0.234 | 0.261 | 0.251 | 0.545 | 0.685 | 0.591 | 0.806 | 0.692 |
